Patent US20230348376A1 (TEIJIN PHARMA LIMITED, priority 2020, published 2023)

Columns and labels:
[1] = system: mouse neural stem cells (NSCs); assay: Promoting activity in oligodendrocyte differentiation of mouse neural stem cell (GalC immunostaining); format: cell-based; details: day 10, N=5
Experimental: To NSC basal medium (100 mL) included in this product, B27 (1 mL), Penicillin-Streptomycin (1 mL), Glutamine (1 mL), bFGF (20 μL), EGF (10 μL), and Heparin (100 μL) were added to prepare the growth medium. Mouse neural stem cells were reconstituted in a T-25 flask using the growth medium and proliferated as a neurosphere by suspension culture. The cells were expanded by passaging at a split ratio=1:2 in a CO2 incubator (5% CO2, 37° C., wet) to obtain the required number of cells. ACCUTASE (Innovative Cell Technologies, Cat. No. AT104) was used as the passage reagent.
The differentiation medium containing test substance was prepared to a target final concentration by diluting a solution of 20 mM compound in DMSO to 10-fold with DMSO and then to 2×10^5-fold with the differentiation medium. Additive-free differentiation medium for control was prepared by diluting DMSO to 2×10^5-fold with the differentiation medium to be a final concentration of 5×10^−5%.
The mouse neural stem cells were seeded on a poly-L-Lysine/Laminin-coated 96-well plate at a cell density of 2.0×10^4 cells/100 μL/well using the differentiation medium and the culture was started in a CO2 incubator (5% CO2, 37° C., wet). The next day, the medium was replaced with the differentiation medium containing a test substance or an additive-free differentiation medium for control, and evaluation of the test substance (N=5) was started (day 0). The medium was replaced every other day by 60% of the medium in the wells. On day 10, cells were fixed and immunostained.
After the medium was removed, the cells were fixed by adding 100 μL of 4% paraformaldehyde-PBS and being incubated at room temperature for 30 minutes. Next, the cells were washed 3 times with PBS, 100 μL of 5% Goat Serum/PBS was added thereto, and the mixture was incubated at room temperature for 30 minutes to perform blocking and membrane permeation treatment. […] After the cells were washed 3 times with PBS, 100 μL of PBS was added to the wells, and the wells were photographed with fluorescence microscopy. Images were taken under the same condition in all wells, and blue fluorescence and green fluorescence were simultaneously photographed.
Using the hybrid cell counting software provided in the fluorescence microscope (Keyence, BZ-X700), co-localized spots of green fluorescence and blue fluorescence were extracted, and the number of these spots was defined as the total number of GalC-positive cells, and the oligodendrocyte differentiation ratio was calculated by the following calculation:the total number of GalC-positive cells/the number of nuclei (number of blue fluorescence spots). A significant difference test was performed by t-test between the additive-free group and the sample-added group.

[2] = system: rat oligodendrocyte progenitor cells; assay: Promotive activity of rat oligodendrocyte progenitor cell differentiation-1 (MBP gene expression, mRNA); format: cell-based; details: Rattus norvegicus, Oligodendrocyte progenitor cell, 96 h, read-out: promotive activity at T3 base (MBP gene expression; DMSO 0%, T3 100%), 4 days, MBP/β actin mRNA
Summary of the method: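 Primary OPCs from 1-day-old SD rat forebrain, isolated by shaking off mixed glial cultures and seeded at 2×10^3 cells/well in B27/CNTF (10 ng/mL) differentiation medium with compound. MBP mRNA measured by one-step TaqMan real-time PCR and expressed as MBP/β-actin ratio.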

C[C@H](CCN1CCOCC1)[C@H]1CC[C@H]2/C(=C/C=C3C[C@@H](O)C[C@H](O)C3)CCC[C@]12C [Compound D023, (1R,3R)-5-(2-((1R,3aS,7aR,E)-7a-methyl-1-((R)-4-morpholinobutan-2-yl)octahydro-4H-inden-4-ylidene)ethylidene)cyclohexane-1,3-diol]
Gal/C positive ratio Average value ([1]; 10 nM): 8.63 | Gal/C positive ratio Average value ([1]; 100 nM): 11.51 | Gal/C positive ratio Average value ([1]; 1000 nM): 12.19 | activation at 1 µM [2]: ≥ 20%
